Legend:
[1] = molecular target: human activated kallikrein enzyme (Homo sapiens, UniProt P03952); experiment: Inhibition of human activated plasma kallikrein, fluorogenic peptide substrate (PFR-AMC), 500 pM enzyme format; format: biochemical; details: 500 pM activated kallikrein, 30 min preincubation, 10 min reaction, room temperature, read-out: Primary Dose Response Assay: Average EC50
Procedure: Compounds were evaluated for inhibition of the human activated kallikrein enzyme in two formats of an assay employing a fluorogenic peptide substrate. In one assay format, the concentrations of reagents were as follows: 20 mM Tris pH 7.5, 1 mM EDTA, 150 mM sodium chloride, 0.1% PEG-400, 0.1% Triton X-100, 500 pM activated kallikrein enzyme, […] Pro-Phe-Arg-7-amido-4-methylcoumarin (PFR-AMC) substrate. Prior to reaction initiation with substrate, enzyme and inhibitors were preincubated for 30 min at room temperature. After initiation with substrate, reactions were incubated for 10 min at room temperature and fluorescence emission at 460 nm from 380 nm excitation measured with a microplate reader. In another assay format, the concentrations of reagents were as follows: 20 mM Tris pH 7.5, 1 mM EDTA, 150 mM sodium chloride, 0.1% PEG-400, 0.1% Triton X-100, 5 pM activated kallikrein enzyme, 300 uM PFR-AMC substrate. Prior to reaction initiation with substrate, enzyme and inhibitors were preincubated for 30 min at room temperature. After initiation with substrate, reactions were incubated for 18 hr at room temperature and fluorescence emission at 460 nm from 380 nm excitation measured with a microplate reader.

plasma kallikrein = molecular target: T1, plasma kallikrein (Homo sapiens, UniProt P03952); experiment: Neat human plasma assay (fluorogenic peptide), contact pathway-activated plasma; format: biochemical; details: citrated human plasma, 10 nM human FXIIa activation, 100 μM PFR-AMC, room temperature; read-out: Human Plasma Assay: IC90
T1 construct: from tissue; host or cells: sodium citrate collected human plasma
T1 sequence (P03952 391-638 limits assumed): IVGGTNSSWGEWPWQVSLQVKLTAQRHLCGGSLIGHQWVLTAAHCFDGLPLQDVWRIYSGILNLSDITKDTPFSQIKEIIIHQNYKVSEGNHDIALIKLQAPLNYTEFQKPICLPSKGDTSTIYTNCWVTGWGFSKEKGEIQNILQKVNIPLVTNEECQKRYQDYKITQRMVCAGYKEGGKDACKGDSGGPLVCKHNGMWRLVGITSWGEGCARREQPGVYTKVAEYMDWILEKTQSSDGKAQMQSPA
T1 sequence (P03952 20-390 partner limits assumed): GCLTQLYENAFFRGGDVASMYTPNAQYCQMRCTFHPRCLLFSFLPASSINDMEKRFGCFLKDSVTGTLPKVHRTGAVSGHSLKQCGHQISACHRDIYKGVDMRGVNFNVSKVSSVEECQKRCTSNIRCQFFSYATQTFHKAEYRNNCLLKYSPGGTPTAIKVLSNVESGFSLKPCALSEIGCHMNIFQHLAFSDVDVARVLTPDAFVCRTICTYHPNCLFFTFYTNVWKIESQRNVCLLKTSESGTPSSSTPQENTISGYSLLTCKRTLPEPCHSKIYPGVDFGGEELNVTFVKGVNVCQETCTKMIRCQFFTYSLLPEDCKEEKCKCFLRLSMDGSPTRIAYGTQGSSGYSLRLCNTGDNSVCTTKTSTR
Procedure: To analyze inhibition of plasma kallikrein in an ex vivo setting, the potency of compounds was measure in contact pathway-activated plasma assays. In a fluorogenic peptide substrate assay, test compounds dissolved in DMSO were added to sodium citrate collected human or rat plasma in a 96-well microplate. Alternatively, citrated plasma was collected from rats administered the compounds orally or by IV. 10 nM of human FXIIa (Enzyme Research Laboratories) diluted in PKa buffer (20 mM Tris-HCl, pH 7.5, 150 mM NaCl, 1 mM EDTA, 0.100 PEG-8000, and 0.1% Triton X-100) was added to the plasma, followed by the 100 μM of the profluorescent, synthetic plasma kallikrein substrate PFR-AMC (also diluted in PKa buffer). Final plasma concentration in the reaction was […]. Fluorescence was immediately monitored by excitation/emission wavelengths of 360 nm/480 nm respectively over a period of 5 minutes in a microplate reader. The resulting linear increase in fluorescence emission (reflecting PKa proteolysis of PFR-AMC substrate) was fit to extract a proteolytic rate (fluorescent units over time), and this rate was subsequently plotted against compound inhibitor concentration. Resulting plots were fit to a standard 4-parameter IC50/C90 equation to determine min/max values, IC50/90, and slope. All experimental steps were performed at room temperature.

Chain of human activated kallikrein enzyme (P03952 391-638 limits assumed): as the sequence (P03952 391-638 limits assumed) above
Chain of human activated kallikrein enzyme (P03952 20-390 partner limits assumed): as the sequence (P03952 20-390 partner limits assumed) above

Row | Compound | EC50 [1] [nM] | IC90 (plasma kallikrein) [nM]
1 | O=C(Nc1cc(NCc2cc3cc(C4CC4)cc(N4CCOC4=O)n3n2)ncn1)[C@H]1C[C@@H]1c1cc(Cl)ccn1 (racemic) [Example 56, rac-(1S*,2S*)-2-(4-chloropyridin-2-yl)-N-(6-(((5-cyclopropyl-7-(2-oxooxazolidin-3-yl)pyrazolo[1,5-a]pyridin-2-yl)methyl)amino)pyrimidin-4-yl)cyclopropane-1-carboxamide] | < 2.5 | 5000 to 65000
2 | CN1C(=O)CN(c2cc(C3CC3)cc3cc(CNc4cc(NC(=O)[C@H]5C[C@@H]5c5cc(Cl)ccn5)ncn4)nn23)C1=O (racemic) [Example 57, rac-(1S*,2S*)-2-(4-chloropyridin-2-yl)-N-(6-(((5-cyclopropyl-7-(3-methyl-2,4-dioxoimidazolidin-1-yl)pyrazolo[1,5-a]pyridin-2-yl)methyl)amino)pyrimidin-4-yl)cyclopropane-1-carboxamide] | < 2.5 | 500 to 5000
3 | Cc1ccnc([C@H]2C[C@@H]2C(=O)Nc2nccc(NCc3cn4cc(C5CC5)cnc4n3)n2)n1 (racemic) [Example 77, rac-(1S*,2S*)—N-(4-(((6-cyclopropylimidazo[1,2-a]pyrimidin-2yl)methyl)amino)pyrimidin-2-yl)-2-(4-methylpyrimidin-2-yl)cyclopropane-1-carboxamide] | < 2.5 | 500 to 5000
4 | Cc1ccnc([C@H]2C[C@@H]2C(=O)Nc2cc(NCc3cn4cc(C5CC5)nc(N5CC(=O)N(C)C5=O)c4n3)ncn2)n1 (racemic) [Example 80, rac-(1S*,2S*)—N-(6-(((6-cyclopropyl-8-(3-methyl-2,4-dioxoimidazolidin-1-yl)imidazo[1,2-a]pyrazin-2-yl)methyl)amino)pyrimidin-4-yl)-2-(4-methylpyrimidin-2-yl)cyclopropane-1-carboxamide] | < 2.5 | < 500
5 | Cc1ccnc([C@H]2C[C@@H]2C(=O)Nc2ncc(F)c(NCc3cn4cc(C5CC5)nc(N5CC(=O)N(C)C5=O)c4n3)n2)n1 (racemic) [Example 84, rac-(1S*,2S*)—N-(4-(((6-cyclopropyl-8-(3-methyl-2,4-dioxoimidazolidin-1-yl)imidazo[1,2-a]pyrazin-2-yl)methyl)amino)-5-fluoropyrimidin-2-yl)-2-(4-methylpyrimidin-2-yl) cyclopropane-1-carboxamide] | < 2.5 | < 500
6 | Cc1ccnc([C@H]2C[C@@H]2C(=O)Nc2cc(N3C[C@@H](O)C[C@@H]3c3ccc(N4CC5CC5C4)nc3)ncn2)n1 (relative stereo) [Example 71, rac-(1S*,2S*)—N-(6-((2R^•,4S)-2-(6-(3-azabicyclo[3.1.0]hexan-3-yl)pyridin-3-yl)-4-hydroxypyrrolidin-1-yl)pyrimidin-4-yl)-2-(4-methylpyrimidin-2-yl)cyclopropane-1-carboxamide] | 2.5 to 25 | 500 to 5000
7 | Cc1ccnc([C@H]2C[C@@H]2C(=O)Nc2cc(N3C[C@@H](O)C[C@@H]3c3cn4cc(C5CC5)cnc4n3)ncn2)n1 (relative stereo) [Example 72, rac-(1S*,2S*)—N-(6-((2R,4S)-2-(6-cyclopropylimidazo[1,2-a]pyrimidin-2-yl)-4-hydroxypyrrolidin-1-yl)pyrimidin-4-yl)-2-(4-methylpyrimidin-2-yl)cyclopropane-1-carboxamide] | < 2.5 | 500 to 5000
8 | Cc1ccnc([C@H]2C[C@@H]2C(=O)Nc2cc(N3C[C@@H](O)C[C@@H]3c3cn4cc(C5CC5)cnc4n3)ncn2)c1 (single isomer, unassigned) [Example 75, (1S*,2S*)—N-(6-((2R,4S)-2-(6-cyclopropylimidazo[1,2-a]pyrimidin-2-yl)-4-hydroxypyrrolidin-1-yl)pyrimidin-4-yl)-2-(4-methylpyridin-2-yl)cyclopropane-1-carboxamide] | 2.5 to 25 | 500 to 5000
9 | Cc1ccnc([C@H]2C[C@@H]2C(=O)Nc2nncc(N[C@H](C)c3cc4cc(C5CC5)cc(N5CC(=O)N(C)C5=O)n4n3)n2)n1 (single isomer, unassigned) [Example 102] | < 2.5 | < 500
10 | O=C(Nc1cc(N2C[C@@H](O)CC2c2ccc(N3CC4CC4C3)nc2)ncn1)[C@H]1C[C@@H]1c1cccc(Cl)c1 (stereo partly drawn) [Example 67, (S,2S)—N-(6-((4S)-2-(6-(3-azabicyclo[3.1.0]hexan-3-yl)pyridin-3-yl)-4-hydroxypyrrolidin-1-yl)pyrimidin-4-yl)-2-(3-chlorophenyl)cyclopropane-1-carboxamide] | 25 to 500 | 
11 | O=C1CN(c2cc(C3CC3)cn3nc(CNc4cc(NC(=O)[C@H]5C[C@@H]5c5cc(Cl)ccn5)ncn4)nc23)C(=O)N1 [Example 68, (1S,2S)-2-(4-chloropyridin-2-yl)-N-(6-(((6-cyclopropyl-8-(2,4-dioxoimidazolidin-1-yl)-[1,2,4]triazolo[1,5-a]pyridin-2-yl)methyl)amino)pyrimidin-4-yl)cyclopropane-1-carboxamide] | < 2.5 | 
12 | Cc1ccnc([C@H]2C[C@@H]2C(=O)Nc2cc(NCc3cc(F)c4ncc(Cl)cc4c3)nc(C)n2)n1 [Example 91, (1S,2S)—N-(6-(((3-chloro-8-fluoroquinolin-6-yl)methyl)amino)-2-methylpyrimidin-4-yl)-2-(4-methylpyrimidin-2-yl)cyclopropane-1-carboxamide] | 2.5 to 25 | 
13 | Cc1ccnc([C@H]2C[C@@H]2C(=O)Nc2cc(OCc3cc(F)c4ncc(Cl)cc4c3)cnn2)n1 [Example 92, (1S,2S)—N-(5-((3-chloro-8-fluoroquinolin-6-yl)methoxy)pyridazin-3-yl)-2-(4-methylpyrimidin-2-yl)cyclopropane-1-carboxamide] | 2.5 to 25 | 

Second part, the compound after the results:

Row | EC50 [1] [nM] | IC90 (plasma kallikrein) [nM] | Compound
14 | < 2.5 | 5000 to 65000 | N#Cc1ccc(Cl)cc1[C@H]1C[C@@H]1C(=O)Nc1cc(NCc2cn3cc(C4CC4)cnc3n2)ccn1 (racemic) [Example 22, rac-(1S*,2S*)-2-(5-chloro-2-cyanophenyl)-N-(4-(((6-cyclopropylimidazo[1,2-a]pyrimidin-2-yl)methyl)amino)pyridin-2-yl)cyclopropane-1-carboxamide]
15 | < 2.5 | 5000 to 65000 | O=C(Nc1cc(NCc2nc3ncc(C4CC4)cn3n2)ccn1)[C@@H]1C[C@]12CCc1ccc(Cl)cc12 (racemic) [Example 41, rac-(1S*,2S*)-6′-chloro-N-(4-(((6-cyclopropyl-[1,2,4]triazolo[1,5-a]pyrimidin-2-yl)methyl)amino)pyridin-2-yl)-2′,3′-dihydrospiro[cyclopropane-1,1′-indene]-2-carboxamide]
16 | < 2.5 | 500 to 5000 | N#Cc1ccc(Cl)cc1[C@H]1C[C@@H]1C(=O)Nc1cc(NCc2nc3ncc(C4CC4)cn3n2)ccn1 (racemic) [Example 42, rac-(1S*,2S*)-2-(5-chloro-2-cyanophenyl)-N-(4-(((6-cyclopropyl-[1,2,4]triazolo[1,5-a]pyrimidin-2-yl)methyl)amino)pyridin-2-yl)cyclopropane-1-carboxamide]
17 | < 2.5 | 5000 to 65000 | O=C(Nc1cc(NCc2cc3cc(C4CC4)cnc3s2)ccn1)[C@H]1C[C@@H]1c1cccc(Cl)c1 [Example 23, (1S,2S)-2-(3-chlorophenyl)-N-(4-(((5-cyclopropylthieno[2,3-b]pyridin-2-yl)methyl)amino)pyridin-2-yl)cyclopropane-1-carboxamide]
18 | < 2.5 | 5000 to 65000 | O=C(Nc1cc(NCc2nc3ccc(C4CC4)cn3n2)ccn1)[C@H]1C[C@@H]1c1cccc(Cl)c1 [Example 25, (1S,2S)-2-(3-chlorophenyl)-N-(4-(((6-cyclopropyl-[1,2,4]triazolo[1,5-a]pyridin-2-yl)methyl)amino)pyridin-2-yl)cyclopropane-1-carboxamide]
19 | 2.5 to 25 | 5000 to 65000 | O=C(Nc1cc(NCc2nc3ccc(C4CC4)nn3n2)ccn1)[C@H]1C[C@@H]1c1cccc(Cl)c1 [Example 29, (1S,2S)-2-(3-chlorophenyl)-N-(4-(((6-cyclopropyl-[1,2,4]triazolo[1,5-b]pyridazin-2-yl)methyl)amino)pyridin-2-yl)cyclopropane-1-carboxamide]
20 | < 2.5 | 500 to 5000 | O=C(Nc1cc(NCc2nc3ncc(C4CC4)cn3n2)ccn1)[C@H]1C[C@@H]1c1cccc(Cl)c1 [Example 31, (1S,2S)-2-(3-chlorophenyl)-N-(4-(((6-cyclopropyl-[1,2,4]triazolo[1,5-a]pyrimidin-2-yl)methyl)amino)pyridin-2-yl)cyclopropane-1-carboxamide]

Source: patent US20240226106A1, “INHIBITORS OF PLASMA KALLIKREIN” (SHIRE HUMAN GENETIC THERAPIES, INC., priority 2021, published 2024)
